According to PubChem BioAssay (NCI):
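All cell lines were grown in 96-well plates and treated with compound for 48 hours. GI50 = concentration required for 50% inhibition of growth. TGI marks complete inhibition of growth.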 *1 amine or outer side, *2 acyl side, *3 side chain or, on linkers, in order; H or OH if unused. Where a SMILES comes first, the peptide text is derived from it. Bridges are numbered along the chain shown (N, C = ends). [ ]: non-standard residue; d: D form. The star is where a group is joined. X19 = O=C([C@H](N[*:1])c1ccc(O[C@H]2O[C@@H](CO)[C@@H](O)[C@@H](O)[C@H]2O[C@@H]2O[C@H](CO)[C@H](O)[C@H](O)[C@@H]2O)cc1)[*:2]; X18 = NC(=O)[C@@H](O[*:3])[C@H](N[*:1])C(=O)[*:2]; X20 = O=C([C@H](N[*:1])c1ccc(O)c(Cl)c1)[*:2]; d(aThr) = C[C@@H](O)[C@@H](N)C(=O)O; dHpg = N[C@@H](C(=O)O)c1ccc(O)cc1; X17 = CC(C)C/C=C/C=C/C(=O)*; dOrn = NCCC[C@@H](N)C(=O)O

Tests used:
Experiment in all cases: NCI anticancer screen, dose series, 48 h
OVCAR-4 ovarian = system: OVCAR-4 ovarian
SNB-19 CNS = system: SNB-19 CNS
SF-268 CNS = system: SF-268 CNS
HOP-62 NSCLC = system: HOP-62 NSCLC
EKVX NSCLC = system: EKVX NSCLC
NCI/ADR-RES ovarian = system: NCI/ADR-RES ovarian
CAKI-1 renal = system: CAKI-1 renal
IGROV1 ovarian = system: IGROV1 ovarian

Structure (SMILES) | GI50 (OVCAR-4 ovarian) [µM] | TGI (OVCAR-4 ovarian) [µM] | GI50 (SNB-19 CNS) [µM] | TGI (SNB-19 CNS) [µM] | GI50 (SF-268 CNS) [µM] | TGI (SF-268 CNS) [µM] | GI50 (HOP-62 NSCLC) [µM] | TGI (HOP-62 NSCLC) [µM] | GI50 (EKVX NSCLC) [µM] | TGI (EKVX NSCLC) [µM] | GI50 (NCI/ADR-RES ovarian) [µM] | TGI (NCI/ADR-RES ovarian) [µM] | GI50 (CAKI-1 renal) [µM] | TGI (CAKI-1 renal) [µM] | GI50 (IGROV1 ovarian) [µM] | TGI (IGROV1 ovarian) [µM]
O=C1/C(=C/c2ccccc2)CN(CCC(=O)N2C/C(=C\c3ccccc3)C(=O)/C(=C/c3ccccc3)C2)C/C1=C\c1ccccc1 | 18.8 | 83.1 | 13.2 | > 93.4 | 12.2 | > 100 | 19.2 | 49.1 | 18.2 | 67.5 | 12.1 | > 76 | 8.5 | 41.1 | 5.19 | 21.9
N#C/C(=C/C=C/c1ccccc1)S(=O)c1ccccc1 (stereo not drawn) | 0.329 | 2.27 | 0.638 | 2.58 | 0.392 | 1.94 | 1.29 | 5.36 | 0.899 | 2.46 | 0.369 | 13.7 | 0.418 | 1.55 | 0.467 | 3
CN(C)CCCN=c1cc2c(=O)n(CCCN(C)C)c(=O)c3c(NCCCN(C)C)cc4c(O)n(CCCN(C)C)c(=O)c1c4c3-2 | 1.83 | 7.9 | 1.51 | 19.7 | 0.964 | 9.33 | 0.657 | 5.19 | 3.06 | 21.3 | 12.3 | > 100 | 6.21 | 29.4 | 2.34 | 8.29
ClC1(c2ccccc2)c2ccc(Br)cc2-c2cc(Br)ccc21 |  | 27.3 |  | 31.3 |  | 39.7 |  | 33.4 |  | 32.3 |  | 34.3 |  | 29.4 |  | 30.2
N/C(=N\c1nc2ccccc2s1)NC(=O)Nc1ccccc1Cl | 2.71 | 8.53 | 0.201 | > 69.5 | 0.832 | > 44.2 | 0.19 | 26.7 | 0.427 | > 100 | 0.0643 | 8.83 | 0.0624 | 15.5 | 0.134 | 21.6
CC(C)(C)N1CC(OC(N)=O)C1 | > 100 | > 100 | > 100 | > 100 | > 100 | > 100 | > 100 | > 100 | > 100 | > 100 | > 100 | > 100 | > 100 | > 100 | > 100 | > 100
CNC(=O)c1cncc(/C=C/c2c(C)cccc2C)c1 | > 25 | > 25 | > 25 | > 25 | > 25 | > 25 | > 25 | > 25 | > 25 | > 25 | > 25 | > 25 | 10.2 | > 25 | 12.9 | > 25
C#Cc1cccc(Nc2ncnc3ccc(-c4cnc(Cl)c(NS(C)(=O)=O)c4)cc23)c1 | 0.762 | 8.33 | 0.374 | 5.7 | 0.155 | 1.67 | 0.292 | 10.7 | 0.253 | 1.87 | 1.24 | 10 | 0.164 | 1.82 | 0.075 | 0.402
COc1ccccc1N1CCN(C(=O)c2ccc(NS(=O)(=O)c3cccc4cccnc34)cc2)CC1 | > 100 | > 100 | 29.5 | > 85.5 | > 48.3 | > 100 | > 49.7 | > 100 | > 100 | > 100 | > 100 | > 100 | > 100 | > 100 | > 78.4 | > 100
CC1(C)CCC2(C(=O)O)CC[C@]3(C)C(=CCC4C5(C)CC[C@H](OC6OC(C(=O)O)C(O)C(OC7OC(CO)C(O)C(O)C7O)C6OC6OC(CO)C(O)C(O)C6O)C(C)(C)C5CCC43C)C2C1 (stereo partly drawn) |  |  | > 100 | > 100 | > 100 | > 100 | > 100 | > 100 | > 100 | > 100 | > 100 | > 100 | > 100 | > 100 | > 100 | > 100
COc1ccc(-c2csc(NC(=O)N3CCN(c4cc5c(cc4F)c(=O)c(C(=O)O)cn5C4CC4)CC3)n2)cc1 |  |  | 3.29 | > 100 | 1.23 | > 100 | 3.02 | 32.6 | 3.11 | > 100 | 5.87 | > 100 |  |  | 2.36 | > 100
O=C(O[C@H]1CN[C@H](C#Cc2cc3ncnc(Nc4ccc(OCc5cccc(F)c5)c(Cl)c4)c3s2)C1)N1CCOCC1 | 10.3 | > 25 | > 25 | > 25 | 5.81 | > 25 | > 13 | > 25 | 0.6 | 24.2 | 6.3 | > 25 | 3.17 | > 25 | 2.69 | > 25
CC(C)C/C=C/C=C/C(=O)N[C@@H](CC(N)=O)C(=O)N[C@@H]1C(=O)N[C@H](c2ccc(O)cc2)C(=O)N[C@H](CCCN)C(=O)N[C@H]([C@@H](C)O)C(=O)N[C@H](c2ccc(O)cc2)C(=O)N[C@H](c2ccc(O)cc2)C(=O)N[C@H]([C@H](C)O)C(=O)N[C@H](Cc2ccccc2)C(=O)N[C@H](CCCN)C(=O)N[C@H](c2ccc(O[C@H]3O[C@@H](CO)[C@@H](O)[C@@H](O)[C@H]3O[C@@H]3O[C@H](CO)[C@H](O)[C@H](O)[C@@H]3O)cc2)C(=O)N[C@H]([C@H](C)O)C(=O)N[C@H](c2ccc(O)cc2)C(=O)NCC(=O)N[C@H](CC(C)C)C(=O)N[C@H](C)C(=O)N[C@H](c2ccc(O)c(Cl)c2)C(=O)O[C@@H]1C(N)=O (X17-N[X18][dHpg][dOrn][d(aThr)][dHpg][dHpg][dT][dF][dOrn][X19][dT][dHpg]G[dL][dA][X20]; ester 2-C) | 39.2 | > 100 | 23.9 | 55.4 | 34.2 | > 100 | 29.9 | 78.2 | 50.6 | > 100 | 39.5 | > 100 | > 100 | > 100 | > 100 | > 100
COc1cccc(-c2nc(-c3ccc(NC(=O)c4ccccc4)cc3)[nH]c2-c2ccnc(Br)c2)c1 | 4.9 | > 100 | 3.87 | > 100 | 6.13 | > 100 | 2.82 | > 100 | 2.18 | 9.47 | 3.55 | > 100 | 2.21 | 8.02 | 6.96 | > 100
CN(C1=NS(=O)(=O)N=C(N(C)c2ccccc2)O1)c1ccccc1 |  | 51.5 |  | 43.4 |  | 57 |  | 41.9 |  | 48.6 |  | 70.8 |  | 45.4 |  | 75.7
CCC1CCCCN1C(=S)N/N=C(\C)c1ccccn1 (stereo not drawn) | 0.0364 | 3.57 | 0.154 | 4.79 | 0.0766 | 5.62 | 0.0504 | 1.96 | 0.0728 | 4.8 | 0.0472 | 6.26 | 0.0466 | 1.83 | < 0.0304 | 2.44
CCn1cc(C(=O)N/N=C/c2cccc(F)c2)c(=O)c2cc(F)c(N3CCNC(C)C3)c(F)c21 (stereo not drawn) | 2.02 | 4.22 | 1.7 | 3.15 | 1.8 | 3.52 | 1.66 | 3.09 | 1.6 | 3.06 | 1.81 | 3.41 | 1.73 | 3.15 | 1.58 | 3.16
COc1cc(C)[nH]c(=O)c1CN1CCc2c(Cl)cc([C@H](OC)C3COC3)c(Cl)c2C1=O | > 100 | > 100 | > 100 | > 100 | > 100 | > 100 | > 100 | > 100 | > 100 | > 100 | > 100 | > 100 | > 100 | > 100 | > 100 | > 100
N#Cc1ccc(-c2nc3ccc(Cl)cc3[nH]2)cc1 |  |  |  | > 100 |  |  |  | > 100 |  | > 100 |  | > 100 |  | > 100 |  | > 100
CN(C)Cc1cccc(CN(C)C)[c]1[Sn]([Br])([c]1ccccc1)[c]1ccccc1 |  |  | 18.7 | 48.4 | 3.77 | 17.5 | 17.2 | 39.5 | 15.2 | 54.1 | 44 | > 100 | 21.3 | 47.1 | 0.436 | 4.52
O=C(NC1CCN(Cc2ccccc2)CC1)c1cc(C(=O)NC2CCN(Cc3ccccc3)CC2)cc(C(=O)NC2CCN(Cc3ccccc3)CC2)c1 | 2.43 | 10.2 | 8.61 | 17.6 | 8.25 | 18.8 | 9.33 | 19.7 |  |  | > 50 | > 50 | > 50 | > 50 | 25.2 | > 50
Cc1cccc2c1O/C(=C\c1ncc([N+](=O)[O-])n1C)C2=O | 0.635 | 6.65 | 0.615 | 4.6 | 0.215 | 0.942 | 0.599 | 1.97 |  |  | 0.2 | 0.783 | 0.135 | 0.479 | 0.217 | 2.92
COc1cc2c(=O)n(CCCn3ccnc3)c3c4cc5c(cc4ccc3c2cc1OC)OCO5 |  |  | 0.496 | 42.8 | 0.448 | 14.9 | 0.305 | 5.37 | 9.72 | > 100 | 1.08 | > 100 |  |  | 1.16 | > 86.6
C/C=C1\C(=O)O[C@@H]2C1C[C@@H]1O[C@H]2[C@H](C)CCC/C(C)=C/CC[C@@]1(C)O (stereo partly drawn) |  |  | 19.4 | 40.6 | 8.45 | 23 |  |  | 2.22 | 5.53 | 3.89 | 13.4 | 3.47 | 15.4 | 1.29 | 3.32
NCCCn1c2c(c3cc4c(cc3c1=O)OCO4)C(=O)c1ccccc1-2 | 0.199 | 0.721 | 4.19 | > 100 | 3.75 | 16.5 | 0.187 | 0.729 | 0.842 | 2.55 | 0.7 | 2.11 | 0.688 | 2.22 |  | 
Oc1cccc(Cn2c(-c3cccc(O)c3O)nc3ccccc32)c1O | 5.2 | > 100 | 13.8 | > 100 | 4.74 | 28.7 | 3.77 | 38.7 |  |  | 2.34 | 8.69 | 2.26 | 5.85 | 34 | > 100
Cc1cccc2c1NC(=O)[C@@]21[C@H](C(=O)c2ccccc2)[C@]2(C(=O)Nc3ccccc32)[C@H]2CCCN21 | 16.4 | 40.7 | 19.2 | > 100 | 30.8 | > 100 | 26.7 | > 100 | 40.6 | > 100 | 20.4 | 71.5 | 22.4 | > 100 |  | 
O=c1ccccc(-c2ccc(-c3ccco3)cc2)c1O | 0.363 | 60.2 | 1.04 | 22.9 | 0.761 | > 100 | 0.694 | 12.9 | 0.406 | 7.9 | 0.388 | 4.65 |  |  | 0.633 | 73.8
Cc1ccc2c(N/N=C\c3ccco3)cc(C)nc2n1 | 2.99 | 9.19 | 8.15 | 24 | 6.15 | 20.5 | 10 | 24.4 |  |  | 6.25 | 26.1 | 2.93 | 12.8 | 3.41 | 14.8
